Data set [1] has as its target TetR (TetR(B), tetracycline repressor) (Escherichia coli, UniProt P04483). The data set is described as follows: SPR, TetR immobilised on CMDH chip by EDC/NHS coupling. Type of data set: binding. In general terms: SPR reads the build-up and loss of mass on a sensor chip optically.
The target in the next data set is TetR(B) (Escherichia coli? (TetR(B) cDNA …, UniProt P04483 1-207)). As to the kind of experiment: EMSA; complex appears from 0.5 uM TetR with 0.5 uM tetO; no Dox; EMSA: 20 mM Tris-HCl pH 8.0, 50 mM NaCl, 1 mM MgCl2, 0.1 mM DTT, 15 min at room temperature; 8% PAGE in 90 mM Tris, 90 mM boric acid, 5 mM MgCl2. The settings on record: protein: recombinant; (cloned NdeI-XhoI; Ni-NTA purified); chain copies: 2; label: none (ethidium bromide stain); blunt. In general terms: A gel shift assay detects complexes by their altered migration in electrophoresis.
TetR(B) (Escherichia coli?, sequence (P04483 whole entry): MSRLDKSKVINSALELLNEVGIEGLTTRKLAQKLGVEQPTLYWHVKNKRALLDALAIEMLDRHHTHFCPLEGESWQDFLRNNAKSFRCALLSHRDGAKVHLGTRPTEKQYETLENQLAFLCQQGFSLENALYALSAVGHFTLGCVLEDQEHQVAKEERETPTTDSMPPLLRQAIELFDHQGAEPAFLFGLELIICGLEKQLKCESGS

Experimental findings from publication PMC6328932, “Procaspase activating compound 1 controls tetracycline repressor-regulated gene expression system” (Bioscience Reports, 2019) are described below.

TetR (TetR(B), tetracycline repressor), sequence (P04483 whole entry, looked up): as the sequence (P04483 whole entry) above

Consider `C=CCc1cccc(C=NNC(=O)CN2CCN(Cc3ccccc3)CC2)c1O` [PAC-1], for which, in data set [1], the Kd is 260 µM.

B1: tetO (dsDNA)
DNA 1: CCTAATTTTTGTTGACACTCTATCATTGATAGAGTTATTTTACCACTC
DNA 2: GAGTGGTAAAATAACTCTATCAATGATAGAGTGTCAACAAAAATTAGG
Turning to B1, the binding result with TetR(B) is given as “binds”.

For orientation: Kd means the constant that tells how readily two partners part at equilibrium. Higher therefore signals weaker binding.
